Here are results for four compounds from article PMC12298629, “New Derivatives of Caracasine Acid with Anti-Leukemic Activity and Limited Effectiveness in Spheroid Cultures” (Pharmaceuticals, 2025).

One series deals with CCRF-CEM. Description: Cytotoxic MTS assay, CCRF-CEM. The format is cell-based. The note with it: CCRF-CEM, human leukemia cell line, 72 h, median of five assays. An excerpt: (§1) The cancer cell lines used in the cytotoxic assays were acquired from the American Tissue Culture Collection (ATCC) (Manassas, VA, USA) and maintained as described previously. The MRC-5 and BJ human fibroblasts were used as non-tumoral control cells. The (MRC-5 LD and BJ LD) are also human fibroblast cell lines resistant to doxorubicin. […] The Raji and Ramos cell lines correspond to B-cell leukemia. Other cells, such as U2OS, represent a child osteosarcoma, while HCT116 is a colorectal tumor cell line. (HCT116p53^−/−, Horizon Discovery Ltd., Cambridge, UK) is a similar cell line with its p53 gene knocked down, serving as a model of human cancer frequently associated with a poor prognosis. The cells were maintained in Nunc/corning 80 cm^2 plastic tissue culture flasks and cultured in a cell culture medium according to ATCC or Horizon recommendations (McCoy, DMEM/RPMI 1640 with 5 g/L glucose, 2 mM glutamine, 100 U/mL penicillin, […] streptomycin, 10% fetal calf serum, and NaHCO3). The compounds were freshly dissolved in DMSO. The final concentration of DMSO was 0.01% in the cell culture.
(§2) The in vitro cytotoxicity of compounds (1–7) was assessed using the standard 3-(4,5-dimethyl-thiazol-2yl)-5-(3-carboxymethoxyphenyl)-2-(sulfophenyl)-2H-tetrazolium (MTS). The assay was performed at the Institute of Molecular and Translational Medicine using a robotic platform (High-ResBiosolutions, Beverly, MA, USA). Cell suspensions were prepared and diluted according to the specific cell type and the expected target cell density (25,000–35,000 cells/mL, based on cell growth characteristics). An automatic pipettor (30 μL) was used to add cells into 384-well microtiter plates. All tested compounds were dissolved in 100% DMSO, and four-fold dilutions of the intended test concentrations were added in 0.15 μL aliquots at time zero to the microtiter plate wells by the echo acoustic non-contact liquid handler Echo550 (Labcyte, San Jose, CA, USA). The assays were accomplished in technical duplicates and at least three biological replicates. The cells were incubated with the tested compound for 72 h at 37 °C in a 5% CO2 atmosphere with 100% humidity. At the end of the incubation period, cells were assayed using the MTS test. Aliquots (5 μL) of the MTS stock solution were pipetted into each well and incubated for 1–4 h. After this incubation period, the optical density (OD) was measured at 490 nm using an Envision reader (PerkinElmer, Waltham, MA, USA). Tumor cell survival (TCS) was calculated using the following equation: TCS = (OD drug-exposed well/mean OD control wells) × 100%. The IC50 value, representing the concentration of the compound lethal to 50% of the tumor cells, was calculated from the corresponding dose-response curves using Dotmatics software (Updated version 2022, London, UK). After three days of incubation on the cancer cell lines and normal fibroblasts, the […] (IC50) were obtained. Five assays were performed for each cell line. The standard error of the assays was lower than 10%, as assessed by the triplicate assays.
On the technique in general: Formazan colour is commonly taken as a measure of viable cells.

The test system of the next series is leukemic cells. Description: Effect on the cell cycle. The format is cell-based, human. Particulars: comparable concentrations to caracasine acid.
For another series, the system named is A549. Description: Cytotoxic MTS assay, A549 2D. The format is cell-based. The note with it: A549, human tumors 2D, 72 h, median of five assays.
Excerpt: as §1, §2

In a further series the test system is HCT116 par spheroids. The series can be described thus: Spheroid viability assay (CellTiter-Glo 3D), HCT116 parental spheroids. The format is cell-based. The note with it: HCT-116, human tumors spheroids, 72 h, 100 pM to 50 μM. The procedure:
(§3) Spheroid culture aims to analyze the drug’s effect on complex structures resembling solid tumors. The spheroids were prepared using the specific nonadherent plates for spheroid formation (Nunc Sphera, Thermo Fisher, Waltham, MA, USA) according to the simple protocol outlined by the manufacturer. The cell lines HCT116 parental, HCT116KOTp53, A549, and U2OS were cultured at a density of 2500 cells per well using medium containing 10% fetal calf serum and antibiotics: McCoy’s 5A medium for HCT116, F-12K (Kaighn’s Modified) for A549, and Dulbecco’s Modified Eagle Medium (DMEM). The cells were grown in culture for 48 h as recommended by the manufacturer and as described by Das et al. and Muñoz-Garcia et al..
(§4) The cell viability of the treated spheroids was assessed using the kit CellTiter-Glo 3D (Promega Corporation, Madison, WI, USA). The kit is designed to measure ATP as an indicator of viability, generating a luminescent readout that is more sensitive than colorimetric or fluorescence-based methods. The spheroids were cultivated with compounds at concentrations ranging from 100 pM to 50 μM in triplicate for 72 h, and the luminescence was measured using the Enspire apparatus (PerkinElmer). A standard curve was performed for each analysis as recommended by the manufacturer.
(In general: ATP-based viability assays read luminescence as a measure of living cells.)

For a further series, the system named is caspase 8. The series can be described thus: Caspase 8 activity in lysed HCT116 cells from 2D and spheroids. In kind it is cell-based, human. Particulars: 12 h; for Caspase 8 activity, 2D culture: HCT116 parental, 25 µM; for Caspase 8 activity, spheroid culture: HCT116 parental spheroids, 25 µM (cisplatin 15 μM). Here is the method: The assay was designed to evaluate the impact of various compounds on caspase activity using a standardized quantity of cell protein lysates after 12 h of incubation. The parental line HCT116 served as the basis for these experiments. Three distinct caspases were examined employing the fluorescence assay kits from Calbiochem (San Diego, CA, USA), specifically a fluorometric caspase-8 assay kit and a fluorimetric caspase-3 assay kit. Additionally, the fluorometric kit from Abcam was utilized to assess caspase-9 activity. Due to the variations in protocols for each caspase, separate plates were prepared for each assay, encompassing both two-dimensional (2D) cell cultures and spheroids. The compound concentrations were established at 25 µM, and assays were conducted in quintuplicate following a 12-h incubation period. The cells were harvested from the plates using the standard trypsin-EDTA solution (Merck Sigma Aldrich, Saint Louis, MO, USA), washed, and counted before lysis, as described in each kit. Cell processing adhered to the guidelines provided by the respective companies, and protein concentration was calculated and standardized using the standard BCA assay. Fluorescent readings were captured using the Enspire apparatus (Perkin-Elmer, MA, USA). Positive controls utilized included staurosporine at a concentration of 5 μM and cisplatin at 15 μM. The kits provided their own standards; however, to normalize all the readings between cultures, types, and treatments, the results were expressed as a percentage relative to the positive control, staurosporine, in 2D culture. […] A total of three separate assays were conducted for each caspase.

In a further series the test system is U2OS spheroids. Description: Spheroid viability assay (CellTiter-Glo 3D), U2OS spheroids. The format is cell-based. The note with it: U2OS, human tumors spheroids, 72 h, 100 pM to 50 μM. The procedure: as §3, §4
For a further series, the system named is BJ. The series can be described thus: Cytotoxic MTS assay, BJ fibroblasts. The format is cell-based. Particulars: BJ, human fibroblasts, 72 h, median of five assays.
Excerpt: as §1, §2

Another series has as its system normal human leukocytes. Set-up: method as in PMID 31449809, PMID 35430982. The note with it: 0.1 nM to 50 μM in 0.01% DMSO; cited from earlier work.

pIC50: −log10 of the molar value.

The term pIC50 denotes the negative decadic logarithm of the IC50, by convention in mol/L. Regarding `C=C(C)C1CCC23CC(CCC2C1(C)CCC(=O)O)C(C)C3=O` (single isomer, unassigned; ent-3) [Compound 5, Ent-3,4-Seco-15-Oxo-Kaur-4(19)-en-3-Oic Acid], the pIC50 with CCRF-CEM, in the series on A549, in the series on HCT116 par spheroids, with U2OS spheroids and in the series on BJ was less than 4.30 throughout. The “Effect on the cell cycle” value in the series with leukemic cells is “no effect”. For the same compound, the “Caspase 8 activity, 2D culture” value with caspase 8 is listed as “did not induce caspase activity”.

Regarding `C=C1C(=O)C23CCC(C(=C)C)C(C)(CCC(=O)OC)C2CCC1C3` (stereo not drawn) [Compound 2, Caracasine], the negative-log IC50 (pIC50) was 6.07 with CCRF-CEM; 5.08 with A549; less than 4.30 in the series on HCT116 par spheroids; less than 4.30 in the series on U2OS spheroids; 5.14 in the series with BJ. The “Effect on primary leukocytes” value in the series on normal human leukocytes is given as “no significant effect”. Further, in the series on caspase 8, the “Caspase 8 activity, spheroid culture” value was “absence of caspase activity”.

In the case of `C=C1C(=O)C23CCC(C(=C)C)C(C)(CCC(=O)OC(C)=O)C2CCC1C3` (stereo not drawn) [Compound 7, Caracasine-Acetic Anhydride], the negative logarithm of the IC50 (pIC50) in the series with CCRF-CEM is 6.35; in the series with A549 it was 5.43; in the series on HCT116 par spheroids, less than 4.30; in the series with U2OS spheroids, less than 4.30; with BJ, 5.11. Besides, in the series with caspase 8, the “Caspase 8 activity, spheroid culture” value is “absence of caspase activity”.

Regarding `C=C(C)C1CCC23CC(CCC2C1(C)CCC(=O)OC(C)=O)C(C)C3=O` (single isomer, unassigned; ent-3) [Compound 6, Ent-3,4-Seco-15-Oxo-Kaur-4(19)-en-Acetic Anhydride], the negative logarithm of the IC50 (pIC50) in the series with CCRF-CEM, in the series with A549, in the series with HCT116 par spheroids, in the series on U2OS spheroids and with BJ was less than 4.30 each time. Also, in the series with leukemic cells, the “Effect on the cell cycle” value is on record as “no effect”. Moreover, the “Caspase 8 activity, 2D culture” value in the series with caspase 8 is reported as “did not induce caspase activity”.
